No end group written: not given here.
Legend:
[1] = test system: Con A-induced suppression; assay: Reversal of Con A-induced suppression of the splenic plaque-forming cell (PFC) response to SRBC in mice; format: in vivo; conditions: for Reversal of Con A-induced suppression (result in words): mice, PFC response to SRBC; for Activity / effective amount on a molar basis relative to the PF4 holoprotein: restoring suppressed immune responses in mice
Method: Concanavalin A (Miles--Yeda Ltd., Research Products, Israel) was reconstituted with saline and kept frozen. Dilutions from the frozen stock were stored at 4° C. and injected i.v. into mice one day prior to antigen, sheep erythrocytes (SRBC). SRBC were obtained from Colorado Serum Company (Denver, Colorado) washed, counted and injected intraperitoneally (i.p.) in mice. Human serum or platelet releasate was administered i.v. one to two hours before Con A i.v.
The spleens of the mice were assayed for plaque-forming cells (PFC) on day 5 after injection of sheep red blood cells. The assay employed was as follows: single-cell suspensions were prepared from individual spleens of mice. The cells were suspended in Hanks' Balanced Salt Solution (Gibco Laboratories, Grand Island, New York) and washed. Direct PFC were enumerated using the well-known method of Jerne, N.K. et al (in Cell-Bound Antibody, Amos, E. and Koprowsky, H. eds., Wistar Institute Press. pp. 109-111, […]) with the slide modification of Mishell, R.I. and Dutton, R.W. (J. Exp. Med. 126:423, 1967), both incorporated by reference. […]
When treated with thrombin or A23187 (Calcium ionophore), platelets also release alpha granule constituents other than PF4. In particular, they release LA-PF4 and PDGF. The inventors tested the ability of LA-PF4 and PDGF to overcome suppression induced by 5 μg Con A. […]
Mice were injected with 10 micrograms of Con A i.v. on day -1 (except in the positive control, which received no Con A) and on day 0 with 2.5×10^6 SRBC per mouse as in Example 2 above. On day -1, the mice also received either: Nothing (100% control), Con A only, platelet releasate (equivalent to the amount of PF4 holoprotein contained in the platelet releasate from 2×10^7 platelets or about 0.12 microgram/mouse) and various concentrations of the above-mentioned synthetic C-terminal peptide of human PF4.

[2] = test system: spleen, lymph node and thymus cells; assay: Absorption of immunoregulatory activity by cells from lymphoid organs, read out as reversal of Con A-induced suppression (PFC/spleen); format: in vivo, CB6F1 mouse
Method: The spleens of the mice were assayed for plaque-forming cells (PFC) on day 5 after injection of sheep red blood cells. The assay employed was as follows: single-cell suspensions were prepared from individual spleens of mice. The cells were suspended in Hanks' Balanced Salt Solution (Gibco Laboratories, Grand Island, New York) and washed. Direct PFC were enumerated using the well-known method of Jerne, N.K. et al (in Cell-Bound Antibody, Amos, E. and Koprowsky, H. eds., Wistar Institute Press. pp. 109-111, […]) with the slide modification of Mishell, R.I. and Dutton, R.W. (J. Exp. Med. 126:423, 1967), both incorporated by reference.
In order to confirm and expand this finding, 1 ml o serum, diluted 1:2, was absorbed twice for thirty minutes at 4° C. using half the number of cells for each absorption as are listed for spleen (Sp1), lymphnode (LN) and thymus (Thy) in Table 3. Each CB6F1 mouse received 0.2 ml of a 1:4 dilution of absorbed or unabsorbed serum i.v. one to two hours before administration of 2×10^6 SRBC i.v. Plaque-forming cell response was measured as in Example 2.
The experiments were performed exactly as described for the PF4 holoprotein in Example 4 above, except that 0.5 (Expt. 1) or 2.5 micrograms (Expt. 2) of the PF4 tridecapeptide was administered.

monocytes = conditions: Osterman et al, Biochem. Biophys. Res. Comm. 107:130-135, 1982; cited from earlier work
[3] = 10 micrograms Con A, 0.7-1 μg Tridecapeptide
[4] = 10 micrograms Con A, 2.5-7 μg Tridecapeptide
[5] = 10 micrograms Con A, 2.5-7 μg Tridecapeptide on day -1, n 5-10

PDGF: platelet-derived growth factor, platelet alpha-granule constituent [reference compound]
Geom. Mean of PFC/Spleen On Day 5, Expt. 1 ([1]; 5 μg Con A, antilog of standard error ≤ 1.1, n = 4, PDGF 0.003 μg per mouse): 8,370 PFC/Spleen
Immunomodulatory activity against suppression induced by 5 μg Con A (result in words) ([1]; concentrations well below those in serum: PDGF 0.003 μg, LA-PF4 0.6 μg, purified PF4 0.2 to 0.6 μg per mouse): little or not activity
Reversal of Con A-induced suppression (result in words) [1]: no significant immunomodulating activity

Pro-Leu-Tyr-Lys-Lys-Ile-Ile-Lys-Lys-Leu-Leu-Glu-Ser-COOH (PLYKKIIKKLLES-OH) [Tridecapeptide, carboxy-terminal 13 amino acid residues of human PF4]
Reversal of immunosuppression induced by Con A (result in words) ([1]; 0.7-7 micrograms administered to mice): active in reversing the immunosuppression induced by Con A
Expt.1 % (of 100% control) ([1]; 10 micrograms Con A, 0.007 μg Tridecapeptide): 52%
Geom. Mean PFC/Spleen (SE), Expt.1 PFC ([1]; 10 micrograms Con A, 0.007 μg Tridecapeptide on day -1, n 5-10): 5,700(1.4) PFC/Spleen
Expt.1 % (of 100% control) ([1]; 10 micrograms Con A, 0.07 μg Tridecapeptide): 37%
Geom. Mean PFC/Spleen (SE), Expt.1 PFC ([1]; 10 micrograms Con A, 0.07 μg Tridecapeptide on day -1, n 5-10): 4,000(1.4) PFC/Spleen
Expt.1 % (of 100% control) [1, 3]: 95%
Expt.2 % (of 100% control) [1, 3]: 226%
Geom. Mean PFC/Spleen (SE), Expt.1 PFC ([1]; 10 micrograms Con A, 0.7-1 μg Tridecapeptide on day -1, n 5-10): 10,400(1.1) PFC/Spleen
Expt.1 % (of 100% control) [1, 4]: 99%
Expt.3 % (of 100% control) [1, 4]: 270%
Geom. Mean PFC/Spleen (SE), Expt.1 PFC [1, 5]: 10,900(1.2) PFC/Spleen
Geom. Mean PFC/Spleen (SE), Expt.3 PFC [1, 5]: 38,800(1,1) PFC/Spleen
Reversal of Con A-induced suppression (result in words) [1]: able to overcome Con A-induced suppression in a dose-dependent fashion
Activity / effective amount on a molar basis relative to the PF4 holoprotein [1]: less than that of the holoprotein
Activity / effective amount on a molar basis relative to the PF4 holoprotein ([1]; listed as PF4 tridecapeptide): About three times more
Geom mean PFC/Spleen, Expt. 1 Geom. Mean ([2]; SRBC + Con A, 0.5 μg/mouse tridecapeptide, unabsorbed or absorbed with cells): 23,488 PFC/Spleen
Geom mean PFC/Spleen, Expt. 2 Geom. Mean ([2]; SRBC + Con A, 2.5 μg/mouse tridecapeptide, unabsorbed or absorbed with cells): 38,790 PFC/Spleen
Absorption of the immunoregulatory activity by cells (result in words) ([2]; normal mouse spleen cells): spleen cells can absorb
Chemotactic activity for monocytes (result in words) (monocytes): potent chemotactic agent
